Data reported in patent US6214805A, “RNase L activators and antisense oligonucleotides effective to treat RSV infections” (priority 1997, dated 2001).
Where two headings read alike, the source gives them in different places.

Assays:
MA-104 Cells = assay: Cytotoxicity to MA-104 cells (visual and dye uptake, rapidly dividing cells); format: cell-based, murine; conditions: MA104
Description: A comparison of the efficacies of spA4 -antiRSV3'3'T/(8281-8299) treatment and conventional ribarvirin treatment can be obtained by determining the RSV-inhibitory concentration and the cytotoxic concentration of each compound. Cultures of the human laryngeal carcinoma cell line HEp-2 and the […] renal cell line MA-104 were established and infected with an MOI=0.005. Cultures were fed twice daily. Treatment with either ribavirin or spA4 -antiRSV3'3'T/(8281-8299) was begun simultaneously with infection and continued for four days. Treatment was then withdrawn and the test read on day 5. The effects of treatment on RSV infection were reported as 1) an EC50, the concentration at which there was a 50% reduction in the observable cytopathic effects of infection and 2) an EC90, the concentration at which there was a 90% reduction in viral production. […] Therapeutic efficacy is estimated by the Selectivity Index, which is the ratio of IC50 /EC50.
IC50 50% inhibitory concentration for cytotoxicity to cells (visual

RSV strain A2 = assay: Neutral red uptake assay of CPE inhibition in HEp-2 cells; format: cell-based, Respiratory syncytial virus; conditions: for EC50: human respiratory syncytial virus
Protocol: (§1) This assay was performed by a modified method as described by Cavenaugh et al. (Cavenaugh et al. 1990, Invest. New Drugs 8:347-354). Briefly, medium was removed from each well of a plate scored for CPE from a CPE inhibition assay, 0.2 ml of neutral red (0.034% in PSS) was added to each of the wells of that plate and the plate incubated for 2 hr at 37° C. in the dark. The neutral red solution was removed from the wells and the wells rinsed twice with PBS (pH 7.4). Equal volumes (0.1 ml) of absolute ethanol and Sorenson citrate buffer (0.1 M sodium citrate, 0.1 M HCI, pH 4.2) were mixed together and added to each well. Plates were incubated in the dark for 30 min. at room temperature to solubilize the dye. The plates were then gently mixed on a 96-well plate adapted vortexer for 1 min. Absorbances at 540 nm and 450 nm were read with a microplate reader (Bio-Tek EL 1309; Bio-Tek Instruments, Inc. Winooski, Vt.). Absorbance values were expressed as percents of untreated controls and EC50 and IC50 values were calculated by regression analysis.

RSV Long (A) [1] = assay: CPE inhibition assay in HEp-2 cells, RSV strain Long; format: cell-based, Respiratory syncytial virus; conditions: Table 12, CPE
Protocol: The CPE inhibition assay used in this study was performed as described by Sidwell and Huffman (Sidwell et al., 1971, Appl. Microbiol. 22:7979-7801) with slight modifications. Varying concentrations of test compounds were added to each plate containing near confluent cell monolayers (1×10^5 cells/well) followed immediately by the addition of virus at a multiplicity of infection (MOI)=0.01, and then incubated at 37° C. On the following day, the medium from each plate was removed and fresh compound added. The assay was stopped at the end of the sixth day when the virus cytopathic effect in the virus infected, untreated control cells affected all cells. All compounds were assayed for virus inhibition in quadruplicate and for cytotoxicity in duplicate. For each compound, two wells were set aside as uninfected, untreated cell controls per test and four wells per test received virus only and represented controls for virus replication. […] For all CPE-based assays, the 50% effective concentration (EC50) was calculated by regression analysis using the means of the CPE ratings at each concentration of compound.
(§2) In this series, MP351 was added once a day for two days with fresh medium

[2] = test system: RSV 393 (clinical isolate); assay: Neutral red uptake assay in HEp-2 cells, RSV 393; format: cell-based, Respiratory syncytial virus; conditions: Table 12, neutral red
Protocol: as §1, §2

RSV CH18537 (B) = assay: Neutral red uptake assay in HEp-2 cells, RSV strain CH18537; format: cell-based, Respiratory syncytial virus; conditions: Table 12, neutral red
Protocol: as §1, §2

RSV Long (A) [3] = assay: Neutral red uptake assay in HEp-2 cells, RSV strain Long; format: cell-based, Respiratory syncytial virus; conditions: Table 12, neutral red
Protocol: as §1, §2

Hep-2 Cells = assay: Neutral red uptake assay of cytotoxicity in HEp-2 cells; format: cell-based, human; conditions: Homo sapiens
Protocol: Embryonic African green monkey kidney cells (MA-104) were obtained from BioWhittaker, Inc. (Walkersville, Md.). HEp-2 cells were propagated from a human epidermoid carcinoma of the larynx (American Type Culture Collection, ATCC; Rockville, Md.). The cells were grown in minimal essential medium. (MEM, Gibco-BRL, Gaitherburg, Md.) supplemented with 0.1% NaHCO3 and 10% fetal bovine serum (FBS, Hyclone Laboratories, Logan Utah.). When performing antiviral assays, serum was reduced to 2% and 50 μg/ml gentamicin (Sigma Chemical Company, St. Louis, Mo.) was added to the medium.
as §1

[4] = HEp-2, 24 h, Table 11, neutral red, q.d. 1 day (added along with virus, never replenished), HEp2
[5] = HEp-2, 48 h, Table 11, neutral red, B.I.D. 2 days, HEp2
[6] = human respiratory syncytial virus, 48 h, once a day for two days

NC(=O)c1ncn([C@@H]2O[C@H](CO)[C@@H](O)[C@H]2O)n1 [Ribavirin]
IC50 (MA-104 Cells): 210 µM
SI (RSV strain A2; Table 11, neutral red, B.I.D. 2 days, HEp2): 130
SI (RSV strain A2; Table 11, neutral red, B.I.D. 3 days, HEp2): > 175
SI (RSV strain A2; Table 11, neutral red, B.I.D. 4 days, HEp2): 75
SI (RSV strain A2; Table 11, neutral red, q.d. 1 day (added along with virus, never replenished), HEp2): > 120
SI (RSV strain A2; Table 11, neutral red, q.d. 3 days, HEp2): 126
SI (RSV strain A2; Table 11, neutral red, q.d. 4 days, HEp2): 36
SI (RSV strain A2; Table 13, neutral red, q.d., Day 0, HEp-2): 27
SI (RSV strain A2; Table 13, neutral red, q.d., Day 1, HEp-2): 28
SI (RSV strain A2; Table 13, neutral red, q.d., Day 2, HEp-2): 80
EC50 (RSV strain A2; HEp-2, 0 h, Table 13, neutral red, q.d., Day 0 (added immediately after virus exposure), HEp-2): 12 µM
EC50 (RSV strain A2; [4]): 4 µM
EC50 (RSV strain A2; HEp-2, 24 h, Table 13, neutral red, q.d., fresh compound up to Day 1 post infection, HEp-2): 40 µM
EC50 (RSV strain A2; [5]): 8 µM
EC50 (RSV strain A2; HEp-2, 48 h, Table 13, neutral red, q.d., fresh compound up to Day 2 post infection, HEp-2, read-out: EC50): 4 µM
EC50 (RSV strain A2; HEp-2, 72 h, Table 11, neutral red, B.I.D. 3 days, HEp2, read-out: EC50): < 4 µM
EC50 (RSV strain A2; HEp-2, 72 h, Table 11, neutral red, q.d. 3 days, HEp2, read-out: EC50): 8 µM
EC50 (RSV strain A2; HEp-2, 96 h, Table 11, neutral red, B.I.D. 4 days, HEp2, read-out: EC50): 8 µM
EC50 (RSV strain A2; HEp-2, 96 h, Table 11, neutral red, q.d. 4 days, HEp2, read-out: EC50): 20 µM
SI (RSV Long (A) [1]): 17
EC50 (RSV Long (A) [1]; [6]): 12 µM
SI [2]: 24
EC50 [2, 6]: 4 µM
SI (RSV CH18537 (B)): 19
EC50 (RSV CH18537 (B); [6]): 12 µM
SI (RSV Long (A) [3]): 23
EC50 (RSV Long (A) [3]; [6]): 12 µM
IC50 (Hep-2 Cells; HEp-2, 0 h, Table 13, neutral red, q.d., Day 0, HEp-2): 328 µM
IC50 (Hep-2 Cells; [4]): 480 µM
IC50 (Hep-2 Cells; HEp-2, 24 h, Table 13, neutral red, q.d., Day 1, HEp-2): 1130 µM
IC50 (Hep-2 Cells; [5]): 1050 µM
IC50 (Hep-2 Cells; HEp-2, 48 h, Table 13, neutral red, q.d., Day 2, HEp-2): 320 µM
IC50 (Hep-2 Cells; HEp-2, 72 h, Table 11, neutral red, B.I.D. 3 days, HEp2): 700 µM
IC50 (Hep-2 Cells; HEp-2, 72 h, Table 11, neutral red, q.d. 3 days, HEp2): 1010 µM
IC50 (Hep-2 Cells; HEp-2, 96 h, Table 11, neutral red, B.I.D. 4 days, HEp2): 600 µM
IC50 (Hep-2 Cells; HEp-2, 96 h, Table 11, neutral red, q.d. 4 days, HEp2): 730 µM
IC50 (Hep-2 Cells; HEp-2, Table 12, neutral red, test with 393 (clinical isolate), HEp-2): 96 µM
IC50 (Hep-2 Cells; HEp-2, Table 12, neutral red, test with CH18537 (B), HEp-2): 233 µM
IC50 (Hep-2 Cells; HEp-2, Table 12, neutral red, test with Long (A), HEp-2): 280 µM
